The values that follow come from publication PMC11541488, “Targeting the Plasmodium falciparum IspE Enzyme” (ACS Omega, 2024).

Like-named read-outs stand apart in the source and are kept apart here.

The subject of one experiment is Ec IspE. The settings on record: cited from earlier work.
For experiment [1], the target named is T1, PfIspE (Plasmodium falciparum, UniProt Q8I470). The experiment is described as follows: Biochemical IspE assay (PK/LDH-coupled, NADH oxidation at 340 nm). The source says: (§1) Here, we initiated a high-throughput screening (HTS) campaign on the PfIspE protein (Section S1 in the Supporting Information). The HTS was based on a proprietary library of 100 000 compounds from the BASF company and used the inhibitory potency of the compound against the IspE protein as the readout. The IC50 from the IspE assay was also a key parameter for our chemical optimization study. Therefore, it is important to note that the activity of the target enzyme in the IspE assay is coupled to the oxidation of NADH (which is followed spectrophotometrically at 340 nm) via a cascade of the auxiliary enzymes pyruvate kinase and lactate dehydrogenase (PK/LDH, Section S2 in the Supporting Information). Accordingly, to confirm that the effects observed in the IspE assay are due to inhibition of the target enzyme rather than the auxiliary enzymes, it is crucial to maintain a difference between the PK/LDH and IspE enzymatic activities. Furthermore, as we have previously reported, the biological testing of this chemical class requires careful handling such as storage of the compounds at −20 °C.[19] Based on what has been reported in the literature, a risk-mitigation strategy involves adding a substituent to the C-5 position of the thiazole ring,[20] which we have adhered to in this SAR exploration. […]
(§2) kBar. The lysate was then centrifuged at 15000 rpm for 80 minutes at 4 °C to remove cell debris, and the supernatant was collected.
(§3) 1.2. Protein Purification
(§4) The supernatant containing the target protein was applied to a Ni-chelating Sepharose column (1 cm x 20 cm) that had been equilibrated with the lysis buffer containing 15 mM imidazole. The column was washed with the same buffer supplemented with 15 mM imidazole until the OD280 reached the baseline. The bound proteins were then eluted from the column using a gradient of imidazole ranging from 15 mM to 600 mM, collected in a volume of 100 mL.
(§5) If further purification was required, size exclusion chromatography was performed using a Superdex200 (GE, 2 cm x 60 cm) column. The column was equilibrated with the lysis buffer without imidazole. The eluted IspE fractions from the previous chromatography step were directly applied to the top of the Superdex200 column.
(§6) The purity and integrity of the purified PfIspE protein were assessed using SDS-PAGE.
(§7) The molecular weight of the protein was estimated by comparison with standard protein markers. The concentration of the purified protein was determined using a NanoDrop.
(§8) The purified PfIspE protein was aliquoted and stored at - 80 °C until further use.
(§9) (Note: All procedures were performed at 4 °C unless otherwise specified ).
(§10) 2.0 Biochemical IspE assay
(§11) Escherichia coli IspE[1] and Plasmodium falciparum IspE[2] for IspE assays was expressed, isolated and purified as previously described. All other enzymes and chemicals used in the assays were purchased from Sigma-Aldrich (Taufkirchen, […]
For testing of compounds in the IspE assay, CDP-ME (0.2 mM) in 100 mM Tris-HCl, pH 7.6, 0.02% NaN3 (30 µL) was added to a well of the 384-well microplate, preloaded either with DMSO or with test compound dissolved in DMSO (3 µL). The reaction was started by addition of 100 mM Tris-HCl, pH 7.6, 10 mM MgCl2, 60 mM KCl, 10 mM dithiothreitol, 0.02% NaN3, 1 mM NADH, 2 mM phosphoenolpyruvate, 2 mM ATP, […]
pyruvate kinase (1 U mL–1), lactate dehydrogenase (1 U mL–1) and E. coli IspE (0.05 U mL–1) (27 µL per microplate well).
IC50 values were measured at CDP-ME concentration 100 µM. […]
For both kinds of assays the OD values in the microplate wells were monitored photometrically at 340 nm (room temperature) for 30 to 90 min in a plate reader (SpectraMax5, […], USA). Initial rate values were evaluated with a nonlinear regression method using the program Dynafit.[3]
Figure S1 : IC50 curve of compound 19.
(1 picture or pasted object on this page, not shown here)

In experiment [2] the target is PK-LDH (pyruvate kinase/lactate dehydrogenase). The experiment is described as follows: Pyruvate kinase assay (auxiliary enzymes PK/LDH). The settings on record: determined for PfIspE IC50 < 100 μM. Type of experiment: biochemical.
Excerpt: as §1, with “°C.[19]” for “°C.[19] Based on what has been reported in the literature, a risk-mitigation strategy involves adding a substituent to the C-5 position of the thiazole ring,[20] which we have adhered to in this SAR exploration.”
(§12) For both kinds of assays the OD values in the microplate wells were monitored photometrically at 340 nm (room temperature) for 30 to 90 min in a plate reader (SpectraMax5, […], USA). Initial rate values were evaluated with a nonlinear regression method using the program Dynafit.[3] […]

For experiment [3], the target named is T2, EcIspE (Escherichia coli, UniProt P62615).
T2 construct: made in house
Description: Analytical SDS-PAGE, photoprobe labelling and competition of probe 23 with compound 19. Type of experiment: binding. The settings on record: for Probe binding to IspE (SDS-PAGE): probe 10 µM, native protein.

Another experiment relates to PfNF54. Description: [3H]-hypoxanthine incorporation assay, asexual blood stage parasites. The settings on record: Plasmodium falciparum. The experiment is classed as cell-based. As for the experimental part:
However, direct comparison of the two assays is extremely difficult. Consequently, it is essential to note that the existence of additional target proteins within P. falciparum at this stage is neither confirmed nor ruled out. […]
the compound activity against P. falciparum NF54 asynchronous parasites, the [3H]- hypoxanthine incorporation assay was used as described.[4] Compounds dissolved in DMSO (10 mg/mL) are diluted in hypoxanthine - free culture media and was titrated in duplicates over a 64-fold range in 96 well plates. Parasite culture diluted to 0.3% parasitemia with 1.25% final haematocrit with hypoxantine-free medium was added at 100 µL to each well. Following a 48 h incubation, […] [3H]-hypoxanthine was added per well. Plates are incubated for another 24 h. Radioactivity was then measured using MicroBeta2 liquid scintillation counter (Perkin Elmer, Waltham, US) following parasite harvesting onto Microbeta FilterMate cell harvester (Perkin, Elmer, Waltham, US). The fifty percent inhibitory concentration (IC50) was then calculated by linear interpolation as described.[5]
For the background lysate, HEK293 cells (passage 27) were grown to 90% confluency in Dulbecco´s Modified Eagle´s Medium (DMEM high glucose, Sigma) supplemented with 2 mM L-glutamine and 10% (v/v) heat-inactivated fetal calf serum (FCS) in T-175 cell culture flasks. Lysis was performed using HEPES buffer (pH 7.5 , Roth) containing 1% Nonidet P 40 alternative (NP-40), 0.4% sodium dodecyl sulfate (SDS, Roth) and 1% sodium deoxycholate (Roth). The lysate was gently sonicated three times for 10 s on a Bandelin Sonoplus HD2070 at 10% amplitude. The lysate was cleared by centrifugation at 16.000 x g for 10 min. The protein content of the supernatant was determined using a BCA assay (ROTIQuant, Roth) according to the suppliers specifications and adjusted to 5 µg/µL to yield the stock solutions used in the […]
7.2 Reaction with probe 23
The protein samples were prepared to result in 50 µg lysate protein per lane and/or 10 µg of the respective recombinant protein (see section 1 of this SI). […]

The target in experiment [4] is T1, PfIspE. Description: Analytical SDS-PAGE, photoprobe labelling and competition of probe 23 with compound 19. Particulars: for Probe binding to IspE (SDS-PAGE): probe 10 µM, native protein. The experiment is classed as binding.
The target in experiment [5] is T2, EcIspE. Description: Biochemical IspE assay (PK/LDH-coupled). The settings on record: Table S1; read-out: Inhibitory potency on EcIspE. As for the experimental part:
as §2, §3, §4, §5, §6, §7, §8, §9, §10, §11, §12

Where [6] appears, read: CDP-ME concentration 100 µM, read-out: IC50 PfIspE.
[7] abbreviates: competitor 19 in 15 times excess.
Setting [8] is: compound 19 in 15 times excess to probe 23 (10 µM).
Setting [9] is: parasite growth, 72 h total incubation, read-out: IC50 PfNF54.

T2 sequence (P62615 whole entry): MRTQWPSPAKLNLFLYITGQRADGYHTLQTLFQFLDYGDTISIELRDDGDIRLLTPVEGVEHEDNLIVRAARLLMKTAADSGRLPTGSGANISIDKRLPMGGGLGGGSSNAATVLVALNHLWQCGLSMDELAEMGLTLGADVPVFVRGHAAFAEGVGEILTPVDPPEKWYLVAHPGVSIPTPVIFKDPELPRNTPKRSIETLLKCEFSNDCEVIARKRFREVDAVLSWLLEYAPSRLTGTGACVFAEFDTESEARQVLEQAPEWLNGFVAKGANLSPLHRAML
T1 sequence (Q8I470 entry or part of it): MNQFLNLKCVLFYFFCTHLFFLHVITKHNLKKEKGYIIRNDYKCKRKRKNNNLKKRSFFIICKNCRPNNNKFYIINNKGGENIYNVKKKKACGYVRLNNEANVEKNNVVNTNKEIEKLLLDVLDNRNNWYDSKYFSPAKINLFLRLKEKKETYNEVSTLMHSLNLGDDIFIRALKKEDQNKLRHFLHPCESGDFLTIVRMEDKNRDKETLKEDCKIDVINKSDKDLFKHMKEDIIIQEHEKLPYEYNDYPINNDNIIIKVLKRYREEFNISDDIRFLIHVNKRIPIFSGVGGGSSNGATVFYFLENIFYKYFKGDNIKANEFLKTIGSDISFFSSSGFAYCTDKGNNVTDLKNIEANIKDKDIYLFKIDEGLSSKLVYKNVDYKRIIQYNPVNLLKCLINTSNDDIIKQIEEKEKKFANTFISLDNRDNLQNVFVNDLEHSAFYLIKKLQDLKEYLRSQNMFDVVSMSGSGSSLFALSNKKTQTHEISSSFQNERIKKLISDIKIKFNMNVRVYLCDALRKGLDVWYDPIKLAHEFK

Consider `Nc1nc(=O)n(C2CCCS2)cc1C#CCNS(=O)(=O)C1CC1` (stereo not shown) [Compound 1], for which, in the experiment with Ec IspE, the IC50 was 8 ± 0.1 µM.

For the molecule `CCOC(=O)CC1(n2cc(C#CCNS(=O)(=O)C3CC3)c(N)nc2=O)COC1` [Compound 1a], in the experiment with Ec IspE, the IC50 was 590 ± 10 µM.

In the case of `NCCC(=O)Nc1ccc(I)cc1Oc1cc(Cl)cc(Cl)c1` [Compound 2], the IC50 in the experiment with Ec IspE is 63 ± 15 µM.

Turning to `Oc1csc(Nc2nccs2)n1` [Compound 7], in the experiment on Ec IspE, the IC50 is 160 ± 0.9 µM.

For the molecule `C1=C(c2c[nH]c3ncccc23)CCNC1` [Compound 8], the IC50 in the experiment with Ec IspE was 1500 ± 300 µM.

Consider `CCn1c(C)cc(-c2csc(Nc3cccc(C(F)(F)F)c3)n2)c1C` [Compound 9], for which the IC50 on PfIspE [1] (setting [6]) stood at 405 ± 114 µM.

Take `CCn1c(C)cc(-c2csc(Nc3ccccc3C(F)(F)F)n2)c1C` [Compound 10]: the IC50 on PfIspE [1] (setting [6]) is over 500 µM.

In the case of `CCn1c(C)cc(-c2csc(Nc3ccc(C(F)(F)F)cc3)n2)c1C` [Compound 11], the IC50 at PfIspE [1] (setting [6]) came out at 128 ± 23 µM.

Take `CCn1c(C)cc(-c2csc(Nc3ccccc3)n2)c1C` [Compound 12]: the IC50 at PfIspE [1] (setting [6]) is over 500 µM.

With `CCn1c(C)cc(-c2csc(Nc3ccc(N(C)C)cc3)n2)c1C` [Compound 13], the IC50 at PfIspE [1] (setting [6]) was over 500 µM.

With `CCn1c(C)cc(-c2csc(Nc3ccc(OC)cc3)n2)c1C` [Compound 14], the IC50 at PfIspE [1] (setting [6]) was over 500 µM.

Consider `CCn1c(C)cc(-c2csc(Nc3ccc(Cl)cc3)n2)c1C` [Compound 15], for which, at PfIspE [1] (setting [6]), the IC50 amounted to 111 ± 34 µM.

Consider `CCn1c(C)cc(-c2csc(Nc3ccc(Cl)nc3)n2)c1C` [Compound 16], for which the IC50 at PfIspE [1] (setting [6]) was 216 ± 53 µM.

As to `CCn1c(C)cc(-c2csc(Nc3cc(Cl)cc(Cl)c3)n2)c1C` [Compound 17], the IC50 at PfIspE [1] (setting [6]) is 143 ± 24 µM.

As to `CCn1c(C)cc(-c2csc(Nc3ccc(CN)cc3)n2)c1C` [Compound 18], the IC50 against PfIspE [1] is 86 ± 44 µM; in experiment [2], over 500 µM.

For `CCn1c(C)cc(-c2csc(Nc3ccc4[nH]cnc4c3)n2)c1C` [Compound 19], the “Reduction in fluorescence of probe 23 label” value on EcIspE [3] (setting [7]) turned out to be 63%; on PfIspE [4] (setting [7]) it was 48%. Besides, the “Relative fluorescence of probe 23 label remaining” value on EcIspE [3] (setting [8]) was “about 37%”; on PfIspE [4] (setting [8]), about 52%. Further, on PfIspE [1], the “Boost in IspE inhibitory potency compared to initial hit 9” value is 8 fold. In addition, the IC50 at PfIspE [1] (setting [6]) was 53 ± 19 µM; in experiment [2], over 500 µM; in the experiment with PfNF54 (corresponding to 0.82 μg/mL, read-out: IC50 PfNF54 converted to molar), about 2400 nM; with PfNF54 (setting [9]), 0.82 ± 0.01 µg/mL.

`CCn1c(C)cc(-c2csc(Nc3ccc4[nH]ncc4c3)n2)c1C` [Compound 20]: the IC50 on PfIspE [1] (setting [6]) turned out to be 121 ± 17 µM.

Take `C#CCn1c(C)cc(-c2csc(Nc3cccc(CC(F)(F)F)c3)n2)c1C` [Compound 21]: the figures for the IC50 at EcIspE [5] and on PfIspE [1] (setting [6]) were over 500 µM and 286 ± 55 µM, respectively.

Regarding `C#CCn1c(C)cc(-c2csc(Nc3ccc(CC(F)(F)F)cc3)n2)c1C` [Compound 22], the IC50 on EcIspE [5] is 31 ± 13 µM; at PfIspE [1] (setting [6]) it was 192 ± 21 µM.

As for `C#CCn1c(C)cc(-c2csc(Nc3ccc(C4(C(F)(F)F)N=N4)cc3)n2)c1C` [Compound 23], the “Probe binding to IspE (SDS-PAGE)” value at EcIspE [3] and on PfIspE [4] was “high affinity” throughout. The results for the IC50 at EcIspE [5], at PfIspE [1] (setting [6]) and in the experiment with PfNF54 (setting [9]) were 77 ± 16 µM, 145 ± 42 µM and 9.8 ± 2.9 µg/mL, respectively.

With `C#CCCC1(CC(=O)Nc2ccccc2)N=N1` [Compound 24, reference compound], the “Probe binding to IspE (SDS-PAGE)” value at EcIspE [3] and on PfIspE [4] was “does not show the same binding profile” each time.
